Reference: US20200278355A1, “CONJUGATED PROTEINS AND USES THEREOF” (THE SCRIPPS RESEARCH INSTITUTE, priority 2017, published 2020)

Key:
TXNDC12 = biological target: T1, TXNDC12 (Homo sapiens, UniProt O95881); assay: isoTOP-ABPP of compound-treated H460 cells: TXNDC12; assay type: cell-based; conditions: TXNDC12 C66; 40 μM
T1 construct: endogenous in cells; host or cells: H460
Description: For analysis of NR0B1 ligands or control compound reactivity, H460 cells or H460 cells expressing luciferase in a 10 cm plate were incubated with indicated compounds in serum/dye-free RPMI for 3 hours at 37° C. Cells were washed once ice-cold PBS and lysed in 1% Triton X-100 dissolved in PBS with protease inhibitors (Sigma) by sonication. Samples were clarified by centrifugation for 10 min at 16,000×g. Lysate was adjusted to 1.5 mg ml^−1 in 500 μL.
Samples were labeled for 1 h at ambient temperature with 100 μM iodoacetamide alkyne (1, IA-alkyne, 5 μL of 10 mM stock in DMSO). Samples were conjugated by copper-catalyzed azide-alkyne cycloaddition (CuAAC) to isotopically labeled, TEV-cleavable tags (TEV-tags). Heavy CuAAC reaction mixtures was added to the DMSO-treated or shGFP control samples and light CuAAC reaction mixture was added to compound-treated or shNRF2 samples. The CuAAC reaction mixture consisted of TEV tags (light or heavy, 10 μL of 5 mM stocks in DMSO, final concentration=100 μM), 1 mM tris(2-carboxyethyl)phosphine hydrochloride (TCEP; fresh 50× stock in water, final concentration=1 mM), ligand (17× stock in DMSO:t-butanol 1:4, final concentration=100 μM) and 1 mM CuSO4 (50× stock in water, final concentration=1 mM). The samples were allowed to react for 1 h at which point the samples were centrifuged (16,000×g, 5 min, 4° C.). […]

TXNRD1 = biological target: T2, TXNRD1 (Homo sapiens, UniProt Q16881); assay: ABPP-SILAC BPK-29yne competition in H460 cells: TXNRD1; assay type: cell-based; conditions: 20 μM
T2 construct: endogenous in cells; host or cells: H460
T2 sequence (Q16881 whole entry): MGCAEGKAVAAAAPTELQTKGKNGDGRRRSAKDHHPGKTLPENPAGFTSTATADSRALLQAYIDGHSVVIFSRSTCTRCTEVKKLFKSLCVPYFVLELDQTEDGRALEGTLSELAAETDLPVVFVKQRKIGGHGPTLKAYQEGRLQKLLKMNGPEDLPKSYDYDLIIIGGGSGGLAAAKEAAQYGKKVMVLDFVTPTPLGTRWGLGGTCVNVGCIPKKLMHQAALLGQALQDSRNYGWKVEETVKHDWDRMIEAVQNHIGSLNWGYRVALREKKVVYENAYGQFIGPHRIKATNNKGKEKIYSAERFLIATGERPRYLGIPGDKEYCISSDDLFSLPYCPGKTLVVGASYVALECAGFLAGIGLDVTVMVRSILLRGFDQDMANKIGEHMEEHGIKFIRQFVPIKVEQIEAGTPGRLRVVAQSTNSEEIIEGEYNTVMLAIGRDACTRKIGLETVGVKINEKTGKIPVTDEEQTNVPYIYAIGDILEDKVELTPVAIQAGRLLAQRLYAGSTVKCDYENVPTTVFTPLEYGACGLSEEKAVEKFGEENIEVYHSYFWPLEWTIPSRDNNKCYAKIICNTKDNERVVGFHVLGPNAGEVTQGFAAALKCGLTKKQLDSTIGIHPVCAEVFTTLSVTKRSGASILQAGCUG
Description: Isotopically labeled H460 cell lines were generated as described above. Light and heavy cells were treated with compounds (20 μM) or DMSO, respectively, for 3 h, followed by labeling with the BPK-29yne (5 μM) for 30 min. Cells were washed once ice-cold PBS and lysed in 1% Triton 100-X dissolved in PBS with protease inhibitors (Sigma) by sonication. Lysate was adjusted to 1.5 mg ml^−1 in 500 μL. Samples were conjugated by CuAAC to Biotin-PEG4-azide (5 μL of 10 mM stocks in DMSO, final concentration=100 μM). CuAAC “click” mix contained TCEP, TBTA ligand and CuSO4 as detailed for isoTOP-ABPP sample preparation. Samples were further processed as detailed in: isoTOP-ABPP streptavidin enrichment and isoTOP-ABPP trypsin TEV digestion with the following exception: after overnight incubation at 37° C. with trypsin, tryptic digests were separated from the beads with Micro Bio-Spin columns (Bio-Rad) by centrifugation (1,000×g, 1 min). Beads were rinsed once with water (200 μL) and combined with tryptic digests. […]
The MS2 spectra data were extracted and searched using RAW Convertor and ProLuCID algorithm as described in isoTOP-ABPP peptide and protein quantification. […] Ratios of heavy/light (DMSO/test compound) peaks were calculated using in-house CIMAGE software. […] The mean R values and standard deviation for multiple biological experiments were calculated from the average ratios from each replicate. […]

T1 sequence (O95881 27-172): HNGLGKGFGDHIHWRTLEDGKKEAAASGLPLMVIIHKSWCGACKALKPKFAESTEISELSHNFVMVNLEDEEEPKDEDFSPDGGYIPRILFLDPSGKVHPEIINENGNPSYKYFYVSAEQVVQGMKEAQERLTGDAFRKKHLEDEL

Structure (SMILES): O=C(c1ccc(N2CCOCC2)cc1)N1CCCC(N(Cc2ccccc2)C(=O)CCl)CC1 (centres unmarked) [BPK-29, N-benzyl-2-chloro-N-(1-(4-morpholinobenzoyl)azepan-4-yl)acetamide]
- BPK-29-competed isoTOP-ABPP analysis (TXNDC12): Yes (Competed defined as showing R value ≥ 3.0 at 40 μM of test compound)
- BPK-29-competed BPK-29yne analysis (TXNRD1): Yes (Competed defined as showing R value ≥ 2.5 at 20 μM of test compound)
